# In patent US12637437B2, “Herbicidal compounds” (SYNGENTA CROP PROTECTION AG, priority 2021, dated 2026):
# Key:
# Type in all cases: in vivo
# [1] = system: Amaranthus retoflexus (AMARE); experiment: Post-emergence herbicidal glasshouse test, AMARE; design: dose or concentration left out as unconfirmed; conditions: evaluated after 13 days, five-point scale
# Experimental: (§1) Seeds of a variety of test species are sown in standard soil in pots (Lolium perenne (LOLPE), Amaranthus retoflexus (AMARE), Abutilon theophrasti (ABUTH), Setaria faberi (SETFA), Echinochloa crus-galli (ECHCG), Ipomoea hederacea (IPOHE)). After cultivation for one day (pre-emergence) or after 8 days cultivation (post-emergence) under controlled conditions in a glasshouse (at 24/16° C., day/night; 14 hours light; 65% humidity), the plants are sprayed with an aqueous spray solution derived from the formulation of the technical active ingredient in acetone/water (50:50) solution containing 0.5% Tween 20 (polyoxyethelyene sorbitan monolaurate, CAS RN 9005-64-5). Compounds are applied at 125 g/h unless otherwise indicated. The test plants are then grown in a glasshouse under controlled conditions in a glasshouse (at 24/16° C., day/night; 14 hours light; 65% humidity) and watered twice daily. After 13 days for pre and post-emergence, the test is evaluated for the percentage damage caused to the plant. The biological activities are shown in the following table on a five-point scale (5=80-100%; 4=60-79%; 3=40-59%; 2=20-39%; 1=0-19%). “—” denotes not tested on this species or data not captured.
# [2] = system: Setaria faberi (SETFA); experiment: Post-emergence herbicidal glasshouse test, SETFA; conditions: 125 g/h, evaluated after 13 days, five-point scale
# Experimental: as §1
# [3] = system: Echinochloa crus-galli (ECHCG); experiment: Post-emergence herbicidal glasshouse test, ECHCG; conditions: 125 g/h, evaluated after 13 days, five-point scale
# Experimental: as §1
# [4] = system: Ipomoea hederacea (IPOHE); experiment: Post-emergence herbicidal glasshouse test, IPOHE; conditions: 125 g/h, evaluated after 13 days, five-point scale
# Experimental: as §1
# [5] = system: Amaranthus retoflexus (AMARE); experiment: Pre-emergence herbicidal glasshouse test, AMARE; conditions: 125 g/h, evaluated after 13 days, five-point scale
# Experimental: as §1
# [6] = system: Setaria faberi (SETFA); experiment: Pre-emergence herbicidal glasshouse test, SETFA; conditions: 125 g/h, evaluated after 13 days, five-point scale
# Experimental: as §1
# [7] = system: Echinochloa crus-galli (ECHCG); experiment: Pre-emergence herbicidal glasshouse test, ECHCG; conditions: 125 g/h, evaluated after 13 days, five-point scale
# Experimental: as §1
# [8] = system: Ipomoea hederacea (IPOHE); experiment: Pre-emergence herbicidal glasshouse test, IPOHE; conditions: 125 g/h, evaluated after 13 days, five-point scale
# Experimental: as §1
Compound,"percentage damage caused to the plant, POST Application AMARE [1]","percentage damage caused to the plant, POST Application SETFA [2]","percentage damage caused to the plant, POST Application ECHCG [3]","percentage damage caused to the plant, POST Application IPOHE [4]","percentage damage caused to the plant, PRE Application AMARE [5]","percentage damage caused to the plant, PRE Application SETFA [6]","percentage damage caused to the plant, PRE Application ECHCG [7]","percentage damage caused to the plant, PRE Application IPOHE [8]"
CC(=O)N1CCC(OC(=O)Nc2c(OC(F)F)ccc(C(=O)Nc3nnnn3C)c2Cl)CC1 [Compound 1.023],4 (4=60-79%),2 (2=20-39%),3 (3=40-59%),1 (1=0-19%),3 (3=40-59%),1 (1=0-19%),1 (1=0-19%),2 (2=20-39%)
CCCOC(=O)Nc1c(OC(F)(F)F)ccc(C(=O)Nc2nnnn2C)c1Cl [Compound 1.014],4 (4=60-79%),5 (5=80-100%),5 (5=80-100%),4 (4=60-79%),3 (3=40-59%),4 (4=60-79%),4 (4=60-79%),2 (2=20-39%)
COC(=O)N(C)c1c(OC(F)(F)F)ccc(C(=O)Nc2nnnn2C)c1Cl [Compound 1.029],5 (5=80-100%),–,5 (5=80-100%),5 (5=80-100%),5 (5=80-100%),5 (5=80-100%),5 (5=80-100%),5 (5=80-100%)
CCOC(=O)N(C)c1c(OC(F)F)ccc(C(=O)Nc2nnnn2C)c1Cl [Compound 1.041],5 (5=80-100%),5 (5=80-100%),5 (5=80-100%),5 (5=80-100%),5 (5=80-100%),4 (4=60-79%),5 (5=80-100%),4 (4=60-79%)
Cn1nnnc1NC(=O)c1ccc(OC(F)F)c(NC(=O)OC2COC2)c1Cl [Compound 1.026],5 (5=80-100%),–,5 (5=80-100%),5 (5=80-100%),5 (5=80-100%),3 (3=40-59%),5 (5=80-100%),4 (4=60-79%)
CCN(C(=O)OC)c1c(OC(F)(F)F)ccc(C(=O)Nc2nnnn2C)c1Cl [Compound 1.030],5 (5=80-100%),–,5 (5=80-100%),5 (5=80-100%),5 (5=80-100%),5 (5=80-100%),5 (5=80-100%),4 (4=60-79%)
Cn1nnnc1NC(=O)c1ccc(OC(F)F)c(NC(=O)OCCS(C)(=O)=O)c1Cl [Compound 1.028],5 (5=80-100%),–,2 (2=20-39%),3 (3=40-59%),5 (5=80-100%),1 (1=0-19%),3 (3=40-59%),2 (2=20-39%)
